Measured values reported in patent US20260265273A1, “SOLID FORM OF FUSED RING COMPOUND, AND PREPARATION METHOD THEREFOR AND USE THEREOF” (APPLIED PHARMACEUTICAL SCIENCE, INC., priority 2022, published 2026).

Tests used:
[1] = Solubility Test II (saturated solubility by HPLC); assay type: physicochemical; conditions: 37° C., 24 h
Protocol: Chromatographic column: Waters XTERRA RP18, 4.6 mm×150 mm, 3.5 μm or an equivalent chromatographic column. […] The gradient elution conditions are shown in Table 3-2. pH 4.5 acetate buffer: 0.59806 g of sodium acetate trihydrate was added to a 200-mL measuring flask and dissolved in an appropriate amount of water; 1.6 mL of glacial acetic acid was added; and the mixture was diluted to volume to obtain the pH 4.5 acetate buffer. pH 6.8 phosphate buffer: 1.38501 g of potassium dihydrogen phosphate and 0.18086 g of sodium hydroxide were added to the same 200-mL measuring flask; and the mixture was dissolved in water and diluted to volume to obtain the pH 6.8 phosphate buffer. 10.0 mL of each medium was precisely measured, and the media were placed into different 25-mL measuring flasks; an appropriate amount of each test crystal form was added; and the flasks were sealed and oscillated in an oscillator at 37° C. for 24 h to obtain supersaturated solutions. pH 6.8 phosphate buffer sample solution: the supersaturated solution prepared using the pH 6.8 phosphate buffer medium was filtered to obtain the pH 6.8 phosphate buffer sample solution. Water sample solution: the supersaturated solution prepared using the water medium was filtered to obtain the water sample solution. pH 4.5 acetate buffer sample solution: the supersaturated solution prepared using the pH 4.5 acetate buffer medium was filtered, and 1.0 mL of the filtrate was precisely measured and placed into a 10-mL measuring flask; the filtrate was diluted to volume with the pH 4.5 acetate buffer medium, and 1.0 mL of the solution was then precisely measured and placed into the 10-mL measuring flask; and the solution was diluted to volume with methanol to obtain the pH 4.5 acetate buffer sample solution. (ii) Preparation of crystal form A sample solution: pH 6.8 phosphate buffer sample solution: the supersaturated solution prepared using the pH 6.8 phosphate buffer medium was filtered to obtain the pH 6.8 phosphate buffer sample solution. Water sample solution: the supersaturated solution prepared using the water medium was filtered to obtain the water sample solution. pH 4.5 acetate buffer sample solution: the supersaturated solution prepared using the pH 4.5 acetate buffer medium was filtered, and 1.0 mL of the filtrate was precisely measured and placed into a 10-mL measuring flask; the filtrate was diluted to volume with the pH 4.5 acetate buffer medium, and 1.0 mL of the solution was then precisely measured and placed into a 25-mL measuring flask; and the solution was diluted to volume with methanol to obtain the pH 4.5 acetate buffer sample solution. Each medium sample solution was taken, 10 μL of each test sample solution was precisely measured and injected into a liquid chromatograph according to the chromatography conditions described above, and the chromatogram was recorded. The saturated solution degree of each medium was calculated according to the formula below. In the formula: WR=sample weight of control solution, mg; PR=purity factor of control; • AS=peak area of main peak in test solution: DS=dilution factor of test solution; • AR=peak area of main peak in control solution; DR=dilution factor of control solution;

[2] = Solid-state stability test (XRPD, HPLC purity); assay type: physicochemical
[3] = Pharmacokinetic experiment in SD rats; assay type: in vivo; conditions: oral intragastric 10 mg/kg, 1 mg/mL in 5% DMSO in normal saline, compound I in plasma, 0.25-24 h
Protocol: Six SPF-grade SD rats were prepared and weighed before administration. The dose of administration was calculated based on the weight. […] These administration solutions were orally and intragastrically administered at 10 mg/kg. The rats were weighed before administration, and the dose of administration was calculated based on the weight. 3 rats were used for each crystal form. The administration solutions were orally and intragastrically administered, followed by collection of samples via the jugular vein or other suitable means at the following time points: 0.25 […], and 24 h. About 0.20 mL of each sample was collected, and the plasma was separated out by centrifugation within 2 h. The compound I was detected, and plasma drug concentration-time curves were plotted. The pharmacokinetic parameters were calculated by utilizing WinNonlin according to the plasma concentration data at different time points.

[4] = Hygroscopicity test (DVS); assay type: physicochemical
Protocol: Dynamic vapor sorption (DVS) curves were acquired on a DVS Intrinsic in SMS (Surface Measurement Systems). The relative humidity at 25° C. was corrected with the deliquescence points of LiCl, Mg(NO3)2, and KCl.

[5] = Crystal form change on drying or standing at room conditions; assay type: physicochemical
Protocol: 20 mg of the amorphous form Z prepared according to the method in Example 1 was weighed into a 3-mL vial. The solid was dissolved in 1.0-1.5 mL of solvent NMP (N-methylpyrrolidone), and the resulting mixture was filtered through a filter membrane to obtain a clear solution. About 4 mL of anti-solvent ACN was added to a 20-mL vial. The uncovered 3-mL vial containing the filtrate was placed into the 20-mL vial, and then the 20-mL vial was sealed and allowed to stand at room temperature. The solid was precipitated and collected to obtain the crystal form I. The X-ray powder diffraction pattern of this crystal form is shown in FIG. 9.
After drying in the air, the crystal form P was transformed to the anhydrous crystal form C. Thus, the crystal form P was determined to be a hydrate.

[6] = 1H-NMR analysis of salt crystal forms; assay type: physicochemical; conditions: DMSO-d6
Protocol: 1 g of the amorphous form Z prepared according to the method in Example 1 was weighed into a vial, and 14 mL of trichloromethane was added; the mixture was stirred at 35° C. for complete dissolution to obtain a solution 1; 102.64 mg of maleic acid was completely dissolved in 2 mL of ethanol to obtain a solution 2; 551 μL of the solution 2 was added to 0.7 mL of the solution 1 with stirring at room temperature, and no solid was precipitated; the mixture was stirred for 5 h and then placed at 4-8° C. overnight, and no solid was precipitated; 0.8 mL of methyl tert-butyl ether was added to obtain a turbid solution, and the turbid solution was stirred to obtain an oil; 0.4 mL of methyl tert-butyl ether was supplemented; and the mixture was successively stirred overnight, centrifuged, and dried in vacuum at 25° C. to obtain the crystal form T. The X-ray powder diffraction pattern of this crystal form is shown in FIG. 24A. […]

[7] = 25° C./60% RH/uncovered, 2 weeks
[8] = 25° C./60% RH/uncovered, 4 weeks
[9] = 25° C./60% RH/uncovered, 6 weeks
[10] = 40° C./75% RH/uncovered, 2 weeks
[11] = 40° C./75% RH/uncovered, 4 weeks
[12] = 40° C./75% RH/uncovered, 6 weeks
[13] = DVS, isothermal adsorption curve

CCOc1cc(-c2ccc(N3CC4CC(C3)N4Cc3ccc(OC)nc3)nc2)c2c3cn[nH]c3nn2c1 (single isomer, unassigned) [Crystal form B]
Saturated solubility ([1]; Water): 0.34 µg/mL | Saturated solubility ([1]; pH 4.5 acetate buffer, listed as crystal form B): 3107.54 µg/mL | Saturated solubility ([1]; pH 6.8 phosphate buffer): 0.02 µg/mL | Purity (area %) [2, 7]: 99.96 area % | Relative to initial purity (%) [2, 7]: 100.01% | Purity (area %) [2, 8]: 99.96 area % | Relative to initial purity (%) [2, 8]: 100.01% | Purity (area %) [2, 9]: 99.96 area % | Relative to initial purity (%) [2, 9]: 100.01% | Purity (area %) [2, 10]: 99.96 area % | Relative to initial purity (%) [2, 10]: 100.01% | Crystal form change ([2]; 40° C./75% RH/uncovered, 2 weeks, XRPD): No change | Purity (area %) [2, 11]: 99.96 area % | Relative to initial purity (%) [2, 11]: 100.01% | Purity (area %) [2, 12]: 99.96 area % | Relative to initial purity (%) [2, 12]: 100.01% | Purity (area %) ([2]; 60° C./sealed, 24 h): 99.97 area % | Relative to initial purity (%) ([2]; 60° C./sealed, 24 h): 100.01% | HPLC purity under the test conditions ([2]; all stability conditions (60° C. sealed 24 h; 25° C./60% RH and 40° C./75% RH uncovered 2, 4, 6 weeks)): not significantly reduced | crystal form under the test conditions ([2]; all stability conditions, XRPD): not changed | AUC(0-t) [3]: 10424 ng·h/mL | hygroscopicity evaluation ([4]; DVS at 25° C., 0% RH-95% RH, according to Chinese Pharmacopoeia 2015 Edition): slightly hygroscopic | hygroscopic weight gain ([4]; DVS, 25° C./80% RH, listed as crystal form B): about 1.0% | crystal form after the DVS test (XRPD) ([4]; after DVS test): not changed

CCOc1cc(-c2ccc(N3CC4CC(C3)N4Cc3ccc(OC)nc3)nc2)c2c3cn[nH]c3nn2c1 [crystal form R]
RH at which the form started to significantly absorb water and underwent polymorphic transition to hydrate crystal form S [4, 13]: 50 % RH

CCOc1cc(-c2ccc(N3CC4CC(C3)N4Cc3ccc(OC)nc3)nc2)c2c3cn[nH]c3nn2c1 [crystal form S]
RH at which the form started to dehydrate and underwent polymorphic transition to anhydrous crystal form R [4, 13]: 40 % RH

CCOc1cc(-c2ccc(N3CC4CC(C3)N4Cc3ccc(OC)nc3)nc2)c2c3cn[nH]c3nn2c1 [crystal form P]
crystal form of the wet sample after standing ([5]; placed in the air for about 10 min): transformation to the crystal form C

CCOc1cc(-c2ccc(N3CC4CC(C3)N4Cc3ccc(OC)nc3)nc2)c2c3cn[nH]c3nn2c1 [crystal form T]
stability in the 1H-NMR analysis [6]: decomposition occurred

CCOc1cc(-c2ccc(N3CC4CC(C3)N4Cc3ccc(OC)nc3)nc2)c2c3cn[nH]c3nn2c1 [crystal form I]
crystal form after drying ([5]; drying at room temperature): transformed to the crystal form A

CCOc1cc(-c2ccc(N3CC4CC(C3)N4Cc3ccc(OC)nc3)nc2)c2c3cn[nH]c3nn2c1 [crystal form Q]
crystal form after standing ([5]; placed at room temperature and room humidity): transferred to the hydrate crystal form M
